Target: T1, HDAC6 catalytic domain 2 (DD2) (Danio rerio, UniProt F8W4B7)
T1 construct: cloning the residues 440–798 of the Danio rerio HDAC6 gene into a modified pET28a(+) vector; 6xHis (N, cleaved yes); made in house; host or cells: E. coli BL21(DE3)
T1 sequence (F8W4B7 440-798): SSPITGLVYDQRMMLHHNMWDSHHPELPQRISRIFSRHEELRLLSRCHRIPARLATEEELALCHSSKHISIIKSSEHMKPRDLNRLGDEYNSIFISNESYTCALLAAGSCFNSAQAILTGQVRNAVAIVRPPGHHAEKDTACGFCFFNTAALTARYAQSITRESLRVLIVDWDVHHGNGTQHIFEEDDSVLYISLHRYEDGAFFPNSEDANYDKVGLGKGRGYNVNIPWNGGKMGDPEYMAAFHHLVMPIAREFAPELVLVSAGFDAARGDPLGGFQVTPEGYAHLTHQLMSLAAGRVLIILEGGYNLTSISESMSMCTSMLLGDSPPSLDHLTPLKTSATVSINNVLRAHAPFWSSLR
Experiment: Enzyme-coupled acetate detection assay ('acetate assay') of HDAC6-catalyzed peptide deacetylation
Type: biochemical
Conditions: Michaelis–Menten fit ± standard error; for kcat/KM: 10–2000 μM monoacetylated substrate, 0.1–1 μM HDAC6 DD2, 50 mM HEPES pH 8.0, 137 mM NaCl, 2.7 mM KCl, 1 mM MgCl2, 30 °C, NADH fluorescence, lower limits where KM below detection limit
Source text: We used an enzyme-coupled acetate detection assay, or simply the ‘acetate assay’ (see “Methods”), developed and applied previously[12],[27], to measure the catalytic efficiency (kcat/KM) of HDAC6. We measured catalysis of deacetylation of acetylated peptides with sequences taken from known substrate proteins, as well as a set of selected peptides with reported acetylation sites that were available to us from previous studies (Table 1). […] To ensure an accurate determination of kcat/KM we measured HDAC6-catalyzed deacetylation at a minimum of four peptide concentrations, with at least two concentrations below KM (Fig. 1, squares). A total of 26 peptides which met these criteria formed our training set (D-TRAINING, Table 1). Additionally, we included 16 peptides where the value of kcat was measured accurately but the KM value was lower than the limit of detection for the acetate assay (~ 10–20 μM substrate, circles in Fig. 1) allowing only the determination of a lower limit for the value of kcat/KM (set D-CAPPED, see below and Table 1). The measured kcat/KM values span the range of three orders of magnitude.
Figure 1 Dependence of deacetylation rate on substrate concentration for two representative peptides catalyzed by HDAC6, measured using the acetate assay. The initial velocity for each substrate concentration was determined from a linear regression of a time course consisting of a minimum of three timepoints, standard error is shown. The kinetic parameters are determined from a nonlinear least square fit of the Michaelis–Menten equation to the data and are listed in Table 1. Black squares: example of data which met the criteria to produce accurate kcat/KM values. Green circles: example of overfit data resulting in calculation of a lower limit for kcat/KM, due to the KM being lower than the detection limit of the assay.
The coupled acetate detection assay or simply the ‘acetate assay’ was performed as previously described with a few modifications. Briefly, lyophilized peptides were re-suspended in water when possible or with minimal quantities of acid, base, or organic solvent to improve solubility. Peptide concentration was determined by one or more of the following methods: (1) measuring A280 using the extinction coefficients if the peptide contained a tryptophan or tyrosine, using the fluorescamine assay if the peptide contained a free lysine, (2) performing the bicinchoninic acid (BCA) assay using bovine serum albumin (BSA) as a standard, and (3) determining the concentration of acetate produced by complete deacetylation of the peptide by HDAC6.
Reactions containing 10–2000 μM monoacetylated peptides in 1× HDAC6 assay buffer (50 mM HEPES, pH 8.0, 137 mM NaCl, 2.7 mM KCl, 1 mM MgCl2) were initiated with 0.1–1 μM HDAC6 at 30 °C. […]

RKSTGG(K-ac)APRKQL [13-mer: RKSTGG(K-ac)APRKQL, H3 K14ac 13-mer peptide]
kcat/KM: 140,000±10,000 M^−1 s^−1
kcat/KM (listed as 13-mer peptide analog): 140000 M⁻¹ s⁻¹
kcat (HDAC6 DD2, pH 8.0, 30 °C): 4.1 ± 0.3 s⁻¹
Km (HDAC6 DD2, pH 8.0, 30 °C, detection limit ~10–20 μM substrate): 28 ± 5 µM

Reference: paper PMC8810773, “Structure-based prediction of HDAC6 substrates validated by enzymatic assay reveals determinants of promiscuity and detects new potential substrates” (Scientific Reports, 2022)
